Literature values in patent US20140363396A1, “ONCE DAILY TREATMENT OF HEPATITIS C WITH RIBAVIRIN AND TARIBAVIRIN” (priority 2012, published 2014).

Tests used:
[1] = compared with ribavirin
[2] = in vivo
HCV NS3/4A protease = target: T1, HCV NS3/4A protease (Hepatitis C virus genotype 1a, UniProt P27958); conditions: R-diastereomer compared with telaprevir
T1 construct: NS3 consists of an N-terminal serine protease domain and a C-terminal helicase domain

[3] = in vivo; remark: listed apart in the source

T1 sequence (P27958 1027-1657 limits assumed): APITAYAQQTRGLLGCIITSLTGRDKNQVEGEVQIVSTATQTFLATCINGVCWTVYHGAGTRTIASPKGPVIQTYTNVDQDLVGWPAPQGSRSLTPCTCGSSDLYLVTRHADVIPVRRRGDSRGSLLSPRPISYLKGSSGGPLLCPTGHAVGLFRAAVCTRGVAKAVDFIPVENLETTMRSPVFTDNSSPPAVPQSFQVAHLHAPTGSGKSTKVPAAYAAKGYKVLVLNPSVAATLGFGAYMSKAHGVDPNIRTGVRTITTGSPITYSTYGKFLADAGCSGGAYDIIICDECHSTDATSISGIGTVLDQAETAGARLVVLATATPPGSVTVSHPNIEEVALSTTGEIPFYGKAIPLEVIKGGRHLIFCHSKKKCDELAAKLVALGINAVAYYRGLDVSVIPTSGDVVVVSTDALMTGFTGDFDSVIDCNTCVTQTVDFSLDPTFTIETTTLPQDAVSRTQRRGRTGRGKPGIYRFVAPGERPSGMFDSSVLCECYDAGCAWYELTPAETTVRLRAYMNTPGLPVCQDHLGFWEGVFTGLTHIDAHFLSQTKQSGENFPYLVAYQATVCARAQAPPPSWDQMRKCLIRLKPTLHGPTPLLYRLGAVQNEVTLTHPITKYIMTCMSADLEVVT
T1 sequence (P27958 1658-1711 partner limits assumed): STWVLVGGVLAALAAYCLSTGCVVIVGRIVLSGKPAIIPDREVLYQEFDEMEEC

For `NC(=O)c1ncn([C@@H]2O[C@H](CO)[C@@H](O)[C@H]2O)n1` [Ribavirin, 1-β-D-ribofuranosyl-1H-1,2,4-triazole-3-carboxamide], the “solubility in anhydrous alcohol” value (anhydrous alcohol) is given as “slightly soluble” and the solubility in water is given as “freely soluble”.
In the case of `NC(=O)c1ncn([C@H]2O[C@@H](CO)[C@H](O)[C@@H]2O)n1` [Levovirin, 1-β-L-ribofuranosyl-1H-1,2,4-triazole-3-carboxamide], the toxicity [1] is listed as “less toxic”.
For `N=C(N)c1ncn([C@@H]2O[C@H](CO)[C@@H](O)[C@H]2O)n1` [taribavirin, 1-β-D-ribofuranosyl-1H-1,2,4-triazole-3-carboxamidine], the anemia [2] is listed as “significantly less anemia”.
In the case of `CC(C)(C)NC(=O)N[C@H](C(=O)N1C[C@H]2[C@@H]([C@H]1C(=O)NC(CC1CCC1)C(=O)C(N)=O)C2(C)C)C(C)(C)C` (stereo partly drawn) [Boceprevir, (1R,5S)—N-[3-Amino-1-(cyclobutylmethyl)-2,3-dioxopropyl]-3-[2(S)-[[[(1,1-dimethylethyl)amino]carbonyl]amino]-3,3-dimethyl-1-oxobutyl]-6,6-dimethyl-3-azabicyclo[3.1.0]hexan-2(S)-carboxamide], the “solubility in methanol, ethanol and isopropanol” value (methanol, ethanol and isopropanol) is listed as “freely soluble” and the solubility in water is listed as “slightly soluble”.
For `CCC[C@@H](NC(=O)[C@@H]1[C@H]2CCC[C@H]2CN1C(=O)[C@@H](NC(=O)[C@@H](NC(=O)c1cnccn1)C1CCCCC1)C(C)(C)C)C(=O)C(=O)NC1CC1` [VRT-127394], the “fold less potent than telaprevir” value (HCV NS3/4A protease) is given as “approximately 30 fold” and the “metabolite of telaprevir in plasma” value [3] is given as “major metabolite in plasma”.
